Measured values taken from US6469028B1, “Synthesis and use of retinoid compounds having negative hormone and/or anatgonist activities” (Allergan, Inc., priority 1995, dated 2002).

What was measured:
[1] = Example 4: retinoid-induced hypertriglyceridemia (serum triglycerides); type: in vivo, rats; settings: group C: AGN 191659 3.7 mg/kg oral alone
Method: Male Fischer rats (6-7 weeks old, n=5) were treated by intragastric intubation with corn oil (vehicle), AGN 191659, AGN 193109 or a combination of AGN 191659 and AGN 193109. AGN 191659 and AGN 193109 were given as fine suspensions in corn oil.
Serum was separated from blood by low speed centrifugation. Total serum triglycerides (triglycerides plus glycerol) were measured with a standard spectrophotometric endpoint assay available commercially as a kit and adapted to a 96-well plate format. Serum triglyceride levels are expressed as the mean±SD. Means were compared statistically by one-way analysis of variance followed by Dunnett's test if significant differences were found. Differences were considered significant at P<0.05.

RARγ = target: T1, RARγ (Homo sapiens, UniProt P13631); test: [3H]-ATRA displacement assay, baculovirus expressed receptor; type: binding; set-up: made in house; host or cells: baculovirus expression system; settings: Table 12; relative affinity, competition of 3H-ATRA binding, Cheng-Prussof equation
T1 sequence (P13631 1-454): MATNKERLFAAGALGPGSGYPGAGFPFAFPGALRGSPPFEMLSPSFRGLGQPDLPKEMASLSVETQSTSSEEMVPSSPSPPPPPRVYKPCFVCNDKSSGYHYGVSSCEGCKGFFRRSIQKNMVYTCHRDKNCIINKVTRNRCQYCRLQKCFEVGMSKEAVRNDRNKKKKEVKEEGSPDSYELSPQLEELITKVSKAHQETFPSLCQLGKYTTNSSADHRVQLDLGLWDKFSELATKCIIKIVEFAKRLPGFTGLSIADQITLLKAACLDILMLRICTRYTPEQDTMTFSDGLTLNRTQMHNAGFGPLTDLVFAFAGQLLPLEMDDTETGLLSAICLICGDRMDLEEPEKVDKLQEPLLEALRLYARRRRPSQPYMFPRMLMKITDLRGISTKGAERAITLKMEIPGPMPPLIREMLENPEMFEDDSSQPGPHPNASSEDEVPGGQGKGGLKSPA

RAR-γ-VP-16 = test: Example 12: assay for retinoid negative hormones, CV-1 cells; type: cell-based; settings: 10^−9 to 10^−6 M, 18 hours, no agonist
hairless mice = test: Example 1: skin irritation by topical agonist, topical antagonist; type: in vivo
Method: More particularly skin irritation was measured on a semiquantitative scale by the daily subjective evaluation of skin flaking and abrasions. A single number, the topical irritation score, summarizes the skin irritation induced in an animal during the course of an experiment. The topical irritation score is calculated as follows. The topical irritation score is the algebraic sum of a composite flaking score and a composite abrasion score. The composite scores range from 0-9 and 0-8 for flaking and abrasions, respectively, and take into account the maximum severity, the time of onset, and the average severity of the flaking and abrasions observed.
The severity of flaking is scored on a 5-point scale and the severity of abrasions is scored on a 4-point scale, with higher scores reflecting greater severity. The maximum severity component of the composite scores would be the highest daily severity score assigned to a given animal during the course of observation.
For the time of onset component of the composite score, a score ranging from 0 to 4 is assigned as follows:
The average severity component of the composite score is the sum of the daily flaking or abrasion scores divided by the number of observation days.
To calculate the composite flaking and abrasion scores, the average severity and time of onset scores are summed and divided by 2. The result is added to the maximal severity score. The composite flaking and abrasion scores are then summed to give the overall topical irritation score. Each animal receives a topical irritation score, and the values are expressed as the mean±SD of the individual scores of a group of animals. Values are rounded to the nearest integer.
Female hairless mice [Crl:SKH1-hrBR] […] Treatments are applied to the dorsal skin in a total volume of 4 ml/kg (˜0.1 ml). Mice were observed daily and scored for flaking and abrasions up to and including 3 days after the last treatment, i.e., day 8.

[2] = test system: 1,25-dihydroxyvitamin D3-dependent gene expression; test: Example 14: 1,25-dihydroxyvitamin D3 transactivation, MTV-VDRE-Luc in HeLa cells; type: cell-based; settings: 1,25-dihydroxyvitamin D3 alone
Method: Hela cells were transfected using the cationic liposome-mediated transfection procedure described by Feigner et al. in Proc. Natl. Acad. Sci. USA 84:7413 (1987). 5×10^4 cells were plated in 12-well multiwell plates and grown in DMEM supplemented with 10% FBS. Cells were cotransfected in serum-free medium using 2 μg/well of LIPOFECTAMINE reagent (Life Technologies, Inc.) with 0.7 μg of the reporter plasmid MTV-VDRE-Luc, containing two copies of the 1,25-dihydroxyvitamin D3 response element [NT] ID NO:4) from the mouse osteopontin gene (Ferrara et al. J. Biol. Chem. 269:2971 (1994)) ligated into the reporter plasmid ΔMTV-Luc (Heyman et al. in Cell 68:397 (1992)), and 0.3 μg of the plasmid pGEM3Z (Pharmacia, Inc.) as carrier DNA to bring the final concentration of DNA to 1.0 μg per well. After six hours of transfection, cells were fed with growth medium containing charcoal extracted FBS at a final concentration of 10%. […] Luciferase activity was measured as described above. This experimental system allowed a convenient method of monitoring and quantitating 1,25-dihydroxyvitamin D3-dependent gene expression.

[3] = test system: TPA-induced AP-1 activity; test: Example 15: anti-AP-1 activity, Str-AP1-CAT in HeLa cells; type: cell-based; settings: 1,25-dihydroxyvitamin D3 alone, 10^−12 to 10^−7 M
Method: HeLa cells were transfected with 1 μg of Str-AP1-CAT using LIPOFECTAMINE according to the method described by Nagpal et al. in J. Biol. Chem. 270:923 (1995). Transfected cells were treated with AGN 193109 alone (10^−9 to 10^−7 M), 1,25-dihydroxyvitamin D3 alone (10^−12 to 10^−7 M) or 1,25-dihydroxyvitamin D3 (10^−12 to 10^−7 M) in the presence of 10^−8 M AGN 193109.

## C/C(=C\c1ccc(C(=O)O)s1)c1cc2c(cc1C)C(C)(C)CCC2(C)C [AGN 191659, 5-[(E)-2-(5,6,7,8-tetrahydro-3,5,5,8,8-pentamethylnaphthalen-2-yl)propen-1-yl]-2-thiophencarboxylic acid, reference compound]
[1]
  Serum Triglycerides: 122.5 ± 27.6 mg/dL

## CC1(C)CC=C(c2cccs2)c2cc(C#Cc3ccc(C(=O)O)cc3)ccc21 [Compound 34a, 4-[(5,6-dihydro-5,5-dimethyl-8-(2-thienyl)-2-naphthalenyl)ethynyl]benzoic acid]
RARγ
  Kd: 52 nM
RAR-γ-VP-16
  RAR-γ-VP-16 constitutive activity (negative hormone activity): did not repress RAR-γ-VP-16 activity

## Cc1ccc(C2=CCSc3ccc(C#Cc4ccc(C(=O)O)cc4)cc32)cc1 [Compound 50, 4-[2-(6-(4-(4-methylphenyl)-(2H)-1-benzothiopyranyl))ethynyl]-benzoic acid]
RARγ
  Kd: 30 nM
RAR-γ-VP-16
  RAR-γ-VP-16 constitutive activity (negative hormone activity): dose dependent repression of RAR-γ-VP-16 constitutive activity

## CC1(C)CC=C(c2ccccc2)c2cc(C#Cc3ccc(C(=O)O)cc3)ccc21 [Compound 60a, 4-[(5,6-dihydro-5,5-dimethyl-8-phenyl-2-naphthalenyl)ethynyl]benzoic acid]
Hairless mice; group C: AGN 192869 0.06 mg/kg/d + AGN 191183 0.025 mg/kg/d topical, molar ratio 2:1
  Topical Irritation Score: 5 ± 2
Hairless mice; group D: AGN 192869 0.30 mg/kg/d + AGN 191183 0.025 mg/kg/d topical, molar ratio 10:1
  Topical Irritation Score: 2 ± 1
Hairless mice; group E: AGN 192869 1.5 mg/kg/d + AGN 191183 0.025 mg/kg/d topical, molar ratio 50:1
  Topical Irritation Score: 1 ± 0
Hairless mice; group F: AGN 192869 1.5 mg/kg/d topical alone
  Topical Irritation Score: 0 ± 0

## C=C1/C(=C\C=C2/CCC[C@]3(C)[C@@H]([C@H](C)CCCC(C)(C)O)CC[C@@H]23)C[C@@H](O)C[C@@H]1O [1,25-dihydroxyvitamin D3, reference compound]
[2]
  concentration required to produce a luciferase expression of approximately 2,000 rlu: 10^−8 M
[3]
  repression of TPA-stimulated activity: repressed TPA-stimulated activity only in the 10^−8 and 10^−7 M concentration range
